Test [1] deals with NR2A, NR2B, PSD-95 and SYP. Nature of the test: Western blot of synaptic proteins in hippocampal fractions, Aβ1-42 AD rat model. It counts as in vivo, rats. As for the experimental part:
Aβ1-42 (Sigma-Aldrich, St. Louis, MO, USA;) was dissolved in double-distilled water at the concentration of 5 μg/μl, and incubated at 37° C. for one week before surgery. The rats were randomly divided into four groups as Sham (n=8), Sham+AG-1601 (n=8), Aβ1-42 (n=8) and Aβ1-42+AG-1601 (n=8). The Alzheimer's disease rat models were established by intracerebroventricular (i.c.v.) injection of Aβ1-42 aggregates. The animals were anesthetized with intraperitoneal injection of pentobarbital sodium (50 mg/kg) and placed in a stereotaxic apparatus (Narishige, Japan). The head skin of the rat was opened and two small holes were drilled on both sides of skull following the coordinates: 0.8 mm posterior to bregma, +1.4 mm lateral to sagittal suture, 4.0 mm beneath the surface of brain. Aβ1-42 (2.0 μl per side) was injected bilaterally into the lateral ventricles through micro-syringe. The needle was taken out after 5 minutes of the injection to ensure the aggregates were infused completely. Rats in the Sham group underwent the same operational process, but same volumes of double-distilled water were injected instead of Aβ1-42. After surgery, all rats were injected with penicillin (100,000 U) in the hindquarter muscle to prevent infection. The animals of Sham+AG-1601 and Aβ1-42+AG-1601 groups were intravenous injection with AG-1601 (1 mg/kg), while the same volume vehicle was implemented for the other groups every day for 14 days after one week of the postoperative recovery.
Three rats of each group were randomly selected to be sacrificed and their hippocampal tissues were immediately removed at 0° C. and stored at minus 80° C. For subcellular fractionation, 100- to 200-mg weight rat hippocampal tissue was used. The procedure has been described (Yang et al., 2017). The tissues were homogenized for 30 s in 500 μl TEVP buffer containing 320 mM sucrose and the homogenate was obtained. The homogenate (H) was centrifuged at 900×g for 10 min at 4° C., and the supernatant (S1) was centrifuged for 20 min at 10000×g at 4° C. to obtain the cytosolic/light membrane fraction (S2) and the crude synaptosomal fraction pellet (P2). The pellet was resuspended in TEVP buffer containing 35.6 mM sucrose solution and then centrifuged at 25,000×g for 20 min at 4° C. The supernatant was stored at minus 80° C. and referred as the synaptic vesicular fraction (LS1). The pellet, synaptic plasma membranes (LP1), was resuspended in TEVP buffer containing 1% Triton X-100 and centrifuged at 330,000×g for 30 min at 4° C. The supernatant referred as Triton X-100-soluble fraction (TSF) was stored at minus 80° C. The final pellet, the Triton X-100-insoluble fraction (TIF), was homogenized in TEVP buffer containing 1% SDS.
The concentration of every component was measured by the BCA protein assay kit (Beyotime Biotechnology, China). The components were finally boiled with 4× loading buffer at 100° C. for 15 min and stored at minus 80° C. for Western blot assay.
The total homogenate (H) and synaptosomal fractions were analyzed. Equal amounts of 20 μg from each sample were separated via 10% or 13% SDS-PAGE gels and subsequently transferred onto PVDF membranes (Millipore, USA). The membranes were blocked with 5% nonfat dry milk for 1 h at room temperature and then incubated with primary antibodies (Anti-synaptophysin, 1: 1000, Abcam; Anti-NR 2A, 1: 2000, Abcam; Anti-NR 2B, 1: 2000, Abcam; Anti-PSD-95, 1: 2000, Abcam; Anti-CREB, 1: 2000,Abcam; Anti-CREB phosphorylation, 1: 2000, Abcam; Anti-SIRT1, 1: 2000, Santa Cruz Biotechnology; Anti-β-actin, 1:5000, Santa Cruz Biotechnology) overnight at 4° C. Membranes were then incubated for 1 h at room temperature with horseradish peroxidase-conjugated secondary antibodies (Promega). After washing with TBST buffer, signals were visualized with the HRP substrate (Millipore, USA) and detected with a chemiluminescence kit (Tanon 5500, Tanon Science & Technology, China). The gray-scale value of protein band was quantified by NIH Image J program. […]

Another test relates to Glioma cells. Nature of the test: Cell viability assay in glioma cells versus TMZ and Carmustine. It counts as cell-based, human. Particulars: 48 hours treatment. As for the experimental part: (§1) Human glioma cell lines of U251, SF539, SF295 were obtained from NCI/DTP and U87 was obtained from ATCC. U251, SF539, and SF295 cells were grown in RPMI (Gibco) medium; U87 cells were grown in EMEM medium (ATCC), all the cells culture media containing 10% FBS and 100 unit/ml of Penicillin-Streptomycin, and cells were incubated in a 37 °C/5% CO2 humidified hood. One day before chemical compounds treatment, four kinds of cells U251, SF539, SF295, and U87 were seeded in 96-well plates at 10,000 cells/well (100 μl) with triplicate. The culture medium was removed and cells were treated with a series different concentration of AG1601/in correspond fresh media. Following an additional incubation of 48 hours at 37° C./5% CO2, cells proliferation assay was performed with Cell Counting Kit-8 (Dojindo Laboratories, #CK04), added 10 μl of reagent to the cells in each well after replacing with 100 μl of fresh media, mix well, following an additional 2 to 3 hours incubation at 37° C./5% CO2, read wavelengths of OD450 nm in a 96-well plate reader (Victor 2, 1420 Multilabel counter), data analysis were performed with Excel and it is platted as relative mean OD450 nm+/−standard error of the mean.
(§2) Cells were treated with indicated content of AG-1601 for 48 hours, then followed by performance of cell viability assays. […]

Another test relates to U251 cells. Nature of the test: Cell viability, combination with TMZ in U251 cells. It counts as cell-based, human. As for the experimental part: as §1, §2
[2] abbreviates: total homogenate (H), vs Aβ1-42 group.

Take `C=CC1=C(C)c2cc3[nH]c(cc4nc(cc5[nH]c(cc1n2)c(C)c5C=C)C(C)=C4CCC(=O)O)c(CCC(=O)NCCCc1ccccc1)c3C` [AG-1601, 3-(2,8,13,18-tetramethyl-3-(3-oxo-3-((3-phenylpropyl)amino)propyl)-12,17-divinylporphyrin-7-yl)propanoic acid]: the NR2A level entry in test [1] (TIF fraction, vs Aβ1-42 group) is reported as “increased”; in test [1] (setting [2]), “increased”. Besides, the NR2B level entry in test [1] (TIF fraction, vs Aβ1-42 group) is reported as “increased”; in test [1] (setting [2]), “increased”. In addition, the PSD-95 level entry was “increased” in test [1] (TIF fraction, vs Aβ1-42 group); “this effect was overcome” in test [1] (setting [2]); “increased” in test [1] (total homogenate (H), vs Aβ1-42 group, listed as AG-1061). Also, the SYP level result in test [1] (TSF fraction, vs Aβ1-42 group) is given as “also increased”. The SYP expression result in test [1] (homogenates of hippocampal tissues, vs Aβ42 group) is given as “this effect was overcome”. In addition, the “efficacy on glioma cells compared with TMZ and Carmustine” value in the test with Glioma cells is “better efficacy on Glioma cells in vitro than TMZ and Carmustine”. The “potentiation of the effect of TMZ” value in the test on U251 cells was “potentiates the effect of TMZ”.

The values above are taken from patent publication US12012415B2, “Compositions and methods for the diagnosis, treatment and prevention of neoplastic and neurological disorders” (AscentGene, Inc., priority 2018, dated 2024).
